Data from ChEMBL document CHEMBL2321701 (J Med Chem, 2013).
Activity calls are given as the source filed them. The rule behind the calls is not given here.

Legend:
Plasmodium falciparum [1] = test: microbe, parasite or virus in culture; settings: K1
[2] = Lipophilicity, log D of the compound at pH 7.4; format: physicochemical; settings: buffer
[3] = Intrinsic clearance in mouse liver microsomes at 1 uM after 60 mins by LC-MS analysis; format: ADME, Microsome; settings: read-out: CLH
Plasmodium falciparum [4] = test: Antimalarial activity against chloroquine-sensitive Plasmodium falciparum NF54 infected mouse assessed as reduction in parasitemia at 30 mg/kg, po measured on day 3 postinfection relative to control; format: functional; design: scale not given: the % may be the effect or the level left
Plasmodium falciparum [5] = test: animal or person; settings: NF54
[6] = Partition coefficient, log P of the compound; format: physicochemical; settings: octanol/water
[7] = AUC (0 to 24 hrs) in mouse at 30 mg/kg, po by LC-MS analysis; format: ADME, organism-based; design: time < 24 hr, dose 30 mg/kg, route oral; settings: plasma
[8] = Dissociation constant, pKa of the compound; format: physicochemical
[9] = test system: Plasmodium berghei (mouse); test: Antimalarial activity against chloroquine-sensitive Plasmodium berghei infected mouse assessed as cured animal at 30 mg/kg, po measured on day 30 postinfection
[10] = test system: Plasmodium berghei (mouse); test: Antimalarial activity against chloroquine-sensitive Plasmodium berghei infected mouse assessed as survival at 30 mg/kg, po
[11] = Half life in mouse whole blood; format: ADME, tissue-based
[12] = Plasma concentration in Swiss outbred mouse at 30 mg/kg, po at 24 hrs by LC-MS analysis; format: ADME, organism-based; design: dose 30 mg/kg, route oral

Compound	IC50 (Plasmodium falciparum [1]) [µM]	logD [2]	microsomal CLint at 1 µM [3] [µL/min/mg]	Activity (Plasmodium falciparum [4]) [%]	IC50 (Plasmodium falciparum [5]) [µM]	logP [6]	AUC(0-t) at 24 h [7] [µM·h]	pKa [8]	Activity [9]	Survival [10] [days]	half-life [11] [min]	concentration at 24 h [12] [ng/mL]
CC(C)(N)CNC(=O)CC1CCC2(CC1)COC1(OO2)C2CC3CC(C2)CC1C3 (configuration not stated)	0.019	1.05	< 7	99.1	0.029	2.44	22.4	9.05	inactive	15	138	> 10
C[C@H]1[C@H](OC(=O)CCC(=O)O)O[C@@H]2O[C@@]3(C)CC[C@H]4[C@H](C)CC[C@@H]1[C@@]24OO3 [ARTESUNATE]	–	–	–	92	–	–	–	–	inactive	9	–	–
CCN(CC)CCCC(C)Nc1ccnc2cc(Cl)ccc12 (configuration not stated) [CHLOROQUINE]	–	–	–	–	–	–	–	–	inactive	10	–	–
CC(C)(N)CNC(=O)C[C@H]1CC[C@]2(CC1)OO[C@]1(O2)C2CC3CC(C2)CC1C3 [OZ277]	–	0.69	17	99.9	–	2.07	5.13	9.05	inactive	11	55.8	< 1
c1cc([C@H]2CC[C@]3(CC2)OO[C@]2(O3)C3CC4CC(C3)CC2C4)ccc1OCCN1CCOCC1 [ARTEFENOMEL]	0.0028	4.53	–	>99.9	0.0034	4.63	52.7	6.81	Active	>30	–	> 200
CC(C)(N)CNC(=O)CC1CCC2(CC1)OOC1(OO2)C2CC3CC(C2)CC1C3 (configuration not stated)	0.0009	0.87	14	99.5	0.0017	2.26	13.5	9.05	inactive	9	54.6	< 1
CC(C)(N)CNC(=O)C[C@H]1CC[C@@]2(CC1)C[C@@]1(OO2)C2CC3CC(C2)CC1C3	0.17	1.83	12	–	0.44	3.21	–	9.05	–	–	60	–
c1cc([C@H]2CC[C@@]3(CC2)C[C@@]2(OO3)C3CC4CC(C3)CC2C4)ccc1OCCN1CCOCC1	0.37	5.56	28	–	1.2	5.66	–	6.82	–	–	–	–
O[C@@H](c1cc(C(F)(F)F)nc2c(C(F)(F)F)cccc12)[C@H]1CCCCN1 (relative stereo) [(S,R)-MEFLOQUINE]	0.0072	–	–	99.6	0.014	–	–	–	inactive	22	–	–
